# According to patent publication US20140194460A1, “TREATMENT OF ENDOMETRIOSIS” (Ferring B.V., priority 2009, published 2014):
# “And” between values parts separate entries of the source, which are not always exact repeats. Equal entries are not always repeated. “Also recorded” adds a separate entry of the source.
# Columns and labels:
# Type in all cases: in vivo, human
# endometriosis = test: ASRM classification of endometriosis before and after treatment (pilot study); settings: per patient (9 women with hyperprolactinemia and endometriosis); oral 25 then 50 then 75 micrograms/day, total 18-20 weeks; stage IV most severe, stage I least severe
# Protocol: (§1) 1] Laparoscopy 1: an endometriotic implant was biopsied, and a second endometriotic implant, similar to the biopsied one, was marked with a non-absorbable suture. Pictures were taken before and after surgery from all individuals. The marked implant was photographed (e.g. FIG. 1A). The biopsy sample was analysed as described below. An assessment of ASRM stage pre-treatment was taken. The PRL level (μg/mL) and Ca125 level (IU/ml) for each patient was measured pre-treatment, by known methods.
# 3] Laparoscopy 2: in which the second (marked) implant was biopsied. The marked implant was photographed (e.g. FIG. 1B). The biopsy sample was analysed as described below. A second assessment of the ASRM stage post-treatment was completed. The PRL level (μg/mL) and Ca125 level (IU/ml) for each patient was measured post-treatment, by known methods.
# Operative L1 and L2 were performed by two experienced surgeons using modern laparoscopic equipment and the surgeries were recorded by video. The severity of the disease was established according to the Revised American Society for Reproductive Medicine classification of endometriosis: […] (16). During L1, 4-6 index peritoneal red lesions were identified before surgical manipulation started. Half of the index lesions were surgically removed and stored as described below. […]
# PRL = test: Serum PRL level before and after treatment; settings: per patient; after oral 25/50/75 micrograms/day titrated treatment, 18-20 weeks
# Protocol: 1] Laparoscopy 1: an endometriotic implant was biopsied, and a second endometriotic implant, similar to the biopsied one, was marked with a non-absorbable suture. Pictures were taken before and after surgery from all individuals. The marked implant was photographed (e.g. FIG. 1A). The biopsy sample was analysed as described below. An assessment of ASRM stage pre-treatment was taken. The PRL level (μg/mL) and Ca125 level (IU/ml) for each patient was measured pre-treatment, by known methods. 3] Laparoscopy 2: in which the second (marked) implant was biopsied. The marked implant was photographed (e.g. FIG. 1B). The biopsy sample was analysed as described below. A second assessment of the ASRM stage post-treatment was completed. The PRL level (μg/mL) and Ca125 level (IU/ml) for each patient was measured post-treatment, by known methods. During the four month treatment period, i.e. between L1 and L2, patients were monthly monitored in our clinic to assess severity of common side effects of Drd2-A like dizziness, nausea and vomiting. During these visits, blood was drawn for subsequent EIA measurement of serum PRL, a marker of the level of Drd2 activity, to monitor compliance with taking the medication.
# [1] = test system: dopamine receptor 2 (DAR2); test: DAR2 expression in endometriotic lesions by staining; settings: after versus before treatment, FIG. 5
# Protocol: DAR2 expression in human endometriotic lesions was measured by staining, by methods well known in the art (FIG. 5, bottom).
# Ca125 = Ca125 level before and after treatment; settings: per patient; after oral 25/50/75 micrograms/day titrated treatment, 18-20 weeks
# Protocol: as §1, with “methods. 3] Laparoscopy 2: in which the second (marked) implant was biopsied. The marked implant was photographed (e.g. FIG. 1B). The biopsy sample was analysed as described below. A second assessment of the ASRM stage post-treatment was completed. The PRL level (μg/mL) and Ca125 level (IU/ml) for each patient was measured post-treatment, by known methods.” for “methods.”
# [2] = test system: vessels in endometriotic lesions; test: Vascularisation of biopsy samples by CD31 immunofluorescence/immunohistochemistry; settings: after versus before treatment, FIG. 2
# Protocol: The vascularisation effects of the quinagolide were assessed by immunofluorescence/immunohistochemistry on the biopsy samples taken before and after treatment, by methods well known in the art. The CD31(+) signal was used which specifically stains for vessels; vessels are stained brown. In order to quantify vascularisation at least 10 random 40× microscopic fields per sample were photographed and analysed using Image pro-plus software. Areas of interest corresponding to vessels (brown stain) were segmented and marked; and those corresponding to non vascularised areas were segmented and marked differently. The marked image was then analysed to show the % vascularised area per tissue, and the results for samples before and after treatment are shown in FIG. 2.
# [3] = test system: proliferating cells (Ki67+) in endometriotic implants; test: Proliferative activity by Ki-67 immunocytochemistry; settings: after versus before treatment, FIG. 3
# Protocol: Immunocytochemistry with Ki-67 (monoclonal IgG1 DAKO Corp., Denmark) antibody was performed in order to evaluate the proliferative activity of the samples, by methods well known in the art. […] The images obtained show proliferating cells as positive for Ki67 with nuclear (brown/black) staining. At least 10 random 40× microscopic fields per sample were photographed and analysed. Areas of interest corresponding to proliferating cells (Ki67+) were segmented and marked, and counted.
# endometriotic lesions = test: Histological analysis and Superarray QF-PCR expression analysis of index lesions removed at L1 and L2
# Protocol: At the end of treatment, the L2 was performed and video recorded. During surgery the silk knot was identified in all patients, the suture removed and the area containing the index lesion left behind surgically excised. If significant adhesion formation was detected, lysis of adhesion was performed. The index lesions removed at L1 and L2 were fixed in formalin (approximately 75% of each lesion tissue) for histological verification and descriptive analysis of endometriosis. Formalin fixed samples were also employed for immunohistochemical analysis and subsequent quantification of vascularisation, vessel immatureness, Drd2 expression, cell proliferation, VEGFR2 expression and VEGFR2 activation by techniques well known in the art. The remaining portion of each lesion tissue (25%) was homogenized in Trizol and cryopreserved at −80° C. for subsequent Superarray QF-PCR analysis.
# [4] = test system: peritoneal red endometriotic lesions; test: Macroscopic analysis: appearance and surface area of index endometriotic lesions at L1 and L2
# Protocol: Operative L1 and L2 were performed by two experienced surgeons using modern laparoscopic equipment and the surgeries were recorded by video. The severity of the disease was established according to the Revised American Society for Reproductive Medicine classification of endometriosis: […] (16). During L1, 4-6 index peritoneal red lesions were identified before surgical manipulation started. Half of the index lesions were surgically removed and stored as described below. The remaining half index lesions were left behind and marked with an unabsorbable silk knot sature approximately 1 cm away from them. All non-index lesions were subsequently removed and discarded. […] Thus the study continued with 10 patients after L1. One patient discontinued treatment. At the end of treatment, the L2 was performed and video recorded. During surgery the silk knot was identified in all patients, the suture removed and the area containing the index lesion left behind surgically excised. If significant adhesion formation was detected, lysis of adhesion was performed. The index lesions removed at L1 and L2 were fixed in formalin (approximately 75% of each lesion tissue) for histological verification and descriptive analysis of endometriosis. Formalin fixed samples were also employed for immunohistochemical analysis and subsequent quantification of vascularisation, vessel immatureness, Drd2 expression, cell proliferation, VEGFR2 expression and VEGFR2 activation by techniques well known in the art. The remaining portion of each lesion tissue (25%) was homogenized in Trizol and cryopreserved at −80° C. for subsequent Superarray QF-PCR analysis. All laparoscopies were recorded with a Karl Storz (Germany) videocamera. […] Eligible frames were captured, copied to a PC computer and opened with ImagePro Plus Version 6.03 (Media Cybernetics, Silver Spring, Md., USA) software for image processing. The size of the black or grey cap served as a reference to measure the changes in surface induced by quinagolide at L2 over the lesions left behind during L1.
# [5] = L2 versus L1, results not shown
smiles,measurement,setting,value
"CCCN1C[C@H](NS(=O)(=O)N(CC)CC)C[C@H]2Cc3c(O)cccc3C[C@@H]21 [quinagolide, (3R,4aR,10aS)-3-(Diethylsulfamoylamino)-6-hydroxy-1-propyl-3,4,4a,5,10,10a-hexahydro-2H-benzo[g]quinoline]",ASRM post treatment,endometriosis,Stage II; also recorded: Stage I; also recorded: Stage III
same,PRL level after treatment,PRL,<0.6 μg/mL (2×) and 15.1 μg/mL and 14 μg/mL and 6.5 μg/mL and <0.1 μg/mL and 6.4 μg/mL and 1.1 μg/mL and 28.6 μg/mL
same,Expression of the dopamine receptor 2 (DAR2) in endometriotic lesions,[1],increases the expression
same,Ca125 level after treatment,Ca125,25.9 IU/ml and 15.5 IU/ml and 18 IU/ml and 21.1 IU/ml and 22 IU/ml and 24.1 IU/ml and 20.4 IU/ml and 29.9 IU/ml and 24.9 IU/ml
same,"Vascularisation of the endometriotic sample (% vascularised area, CD31)",[2],significant decrease in vascularisation
same,Cell proliferation (Ki-67 positive cells per microscopic field),[3],trend towards reduced cell proliferation
same,PAI-1 expression,endometriotic lesions; L2 lesion,down-regulated
same,Histological analysis of lesions,endometriotic lesions; L2 lesions,signs of tissue degeneration
same,Expression of Drd2 and antiangiogenic cytokine CXCL10,endometriotic lesions; [5],upreguilating
same,"Expression of VEGF/VEGFR2 and proangiogenic cytokines CCL2, RUNX1 and AGGF1",endometriotic lesions; [5],downregulated
same,"Decrease of mean total surface area (size) of index lesions, L2 versus L1","[4]; 9 patients, after 18-20 weeks treatment",68%
same,Mean of the total surface area of index lesions measured during L2,"[4]; 9 patients, vanished lesions counted as 100% size reduction, L1 value 36.09±20.56 mm^2, p<0.05",11.57±12.54 mm^2
same,Lesions vanishing,[4]; after 18-20 weeks treatment,35%
same,Number of recovered index lesions showing reduction in size compared to L1,[4]; out of 15 lesions recovered at L2,13
same,Number of red index lesions vanished at L2,[4]; out of 23 red index lesions labelled at L1,8
same,Number of patients with all index endometriotic lesions absent during L2,[4]; out of the 9 patients,2
same,Number of patients with vanished lesions combined with persisting lesions decreased in size,[4]; out of the 9 patients,3
